{"source": "patent US20260306641A1", "about": "“HELICASE DEGRADERS” (priority 2023, published 2026)", "key": {"[1]": {"test_system": "Flag-Mcm2 hCMG and replisome complexes from HEK-293T cells", "experiment": "Co-immunoprecipitation, HEK-293T cells expressing Flag-Mcm2", "format": "biochemical, human", "conditions": "15 μM, 30 min; Flag IP", "protocol": "Nuclear extracts were prepared from synchronized HaCaT cells after releasing into S-phase (at 20 hrs post release) or HEK-293T cells expressing stable Flag-Mcm2 protein (human). Cells from one 10 cm dish were resuspended in […] of Buffer A (10 mM Hepes-KOH pH 7.5, 10 mM KCl, 1.5 mM MgCl2, 0.34 M sucrose, 10% glycerol, protease inhibitors, and 0.1% Triton-X-100) and incubated on ice for 5 min. The nuclear pellet was obtained by centrifugation at 4,000 rpm at 4° C. for 5 min and washed with the Buffer A without Triton X-100. The nuclear extract was obtained by resuspending the nuclear pellet in […] of Buffer A containing 420 mM potassium acetate and 0.01% Triton X-100, and incubating at 4° C. for 1 hr. The final concentration of potassium acetate in nuclear extracts was adjusted to 200 mM for the co-immunoprecipitation assays. For the co-immunoprecipitation assays, […] of indicated antibody [anti-Mcm2, anti-Psf1, or rabbit IgG (Sigma)], or 30 mL of mouse IgG or anti-Flag agarose beads (Sigma), was incubated with […] of nuclear extract at 4° C. for 4 hrs. Protein A/G agarose beads (30 mL, Santa Cruz, sc-2003) were added and incubated for 1 hr with antibodies. […] Beads were washed in the same buffer and analyzed by immunoblotting with indicated antibodies."}, "[2]": {"test_system": "bacterial type-2 topoisomerase, gyrase", "conditions": "cited from earlier work"}, "[3]": {"test_system": "CMG proteins in 143B cells", "experiment": "Immunoblot of chromatin-bound proteins, asynchronous 143B OS cells", "format": "cell-based, human", "conditions": "24 hrs", "protocol": "(§1) FIGS. 7A-7C depict that CMGi induce DNA damage and selectively reduce tumor cell viability. (FIG. 7A) Cell Titer Glo viability assays for CA1/CMGi sensitivity were performed on 143B (OS), Psn1 (PDAC), and H460 (NSCLC) tumor lines. Novobiocin was tested against 143B cells as a comparison. (FIG. 7B) Immunoblot of chromatin-bound proteins (as indicated) from asynchronous 143B OS cells treated with 10 μM novobiocin or increasing concentrations of CA1 for 24 hrs. (FIG. 7C) Immunoblot of total proteins from Psn1, H460, 143B, and HaCaT cells treated with 5 μM CA1/CMGi or DMSO/novobiocin controls, or HaCaT treated with 15 μM CA1/CMGi (right side). The Psn1 and H460 cells were treated for 24 hrs, and 143B and HaCaT cells were treated for 48 hrs. Probing of blots was done with anti-gamma-H2AX (DNA damage signal) or anti-cleaved-Parp (apoptotic indicator). Anti-GAPDH is a loading control."}, "HPV18-E1 helicase": {"biological_target": "HPV18-E1 helicase (human papillomavirus 18, UniProt P06789)", "sequence (P06789 305-657)": "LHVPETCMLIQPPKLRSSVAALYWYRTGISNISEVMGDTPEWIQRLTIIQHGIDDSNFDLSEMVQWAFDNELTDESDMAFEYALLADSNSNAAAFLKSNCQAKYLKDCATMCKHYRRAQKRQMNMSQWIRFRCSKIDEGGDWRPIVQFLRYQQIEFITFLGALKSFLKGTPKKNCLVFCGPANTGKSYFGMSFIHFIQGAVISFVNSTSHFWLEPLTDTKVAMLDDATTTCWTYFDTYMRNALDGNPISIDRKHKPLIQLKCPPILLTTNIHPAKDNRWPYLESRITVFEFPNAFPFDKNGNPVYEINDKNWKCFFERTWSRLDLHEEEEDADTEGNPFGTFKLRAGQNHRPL", "experiment": "HPV18-E1 helicase assay", "format": "biochemical, human papilloma virus 18", "conditions": "requires higher CA1 concentrations than CMG", "protocol": "The HPV16 or HPV18 E1 helicase domain (16E1HD or 18E1HD) was expressed and purified from Sf9 cells by infecting the cells with 2Flag-GST-E1 baculovirus. The cleared cell lysates were prepared as for large T antigen and incubated with Glutathione beads at 4° C. overnight. The bound E1 proteins were eluted from beads with 20 mM reduced glutathione in Q buffer, applied to a Q Sepharose Fast Flow column, and eluted with 0.75 M potassium acetate in Q buffer. Purified E1 proteins were obtained by further incubation with Flag-M2 beads and elution with Flag peptides.\nHelicase fork-unwinding assays were performed at 37° C. for 1 hr in 20 μL reaction volumes using 2-4 μl of hCMG (~15-30 fmol), in a buffer consisting of 25 mM Hepes-NaOH (pH 7.5), 5 mM NaCl, 0.5 mM ATP, 10 mM magnesium acetate, 1 mM DTT, 0.1 mg/ml bovine serum albumin (BSA), and ~10 fmol of radiolabeled DNA forks (20). Reactions were terminated with 4 μl of 6× stop solution [50 mM EDTA (pH 8.0), 40% (vol/vol) glycerol, 2% (wt/vol) SDS, and 0.3% bromophenol blue], loaded onto 10% (wt/vol) polyacrylamide gels, resolved at 150 volts in 1×-TBE buffer (89 mM Tris base, 89 mM boric acid, and 2 mM EDTA), dried on filter paper, and analyzed by autoradiography and quantified by PhosphorImager assessment. […]"}, "143B cells": {"test_system": "143B cells", "experiment": "CellTiter-Glo viability, 143B", "format": "cell-based, human", "conditions": "72 hr", "protocol": "as §1\nCell viability determinations were performed using CellTiter-Glo Assays (Promega; cat #G7572). Cells were seeded in 96-well plates at a density of ~3×10^3 cells/well and treated with drugs for 72 hr, after which the cells were processed for viability using CellTiter-Glo reagent according to the instructions of the manufacturer. Each drug concentration test was performed using four replicates, and results averaged and plotted on graphs, +/−1 s.d."}}}
{"smiles": "CO[C@@H]1[C@@H](OC(=O)c2ccc(C)[nH]2)[C@@H](O)[C@H](Oc2ccc3c(O)c(NC(=O)c4c[nH]c(C(=O)Nc5c(O)c6ccc(O[C@@H]7OC(C)(C)[C@H](OC)[C@@H](OC(=O)c8ccc(C)[nH]8)[C@H]7O)c(C)c6oc5=O)c4C)c(=O)oc3c2C)OC1(C)C", "note": "[CA1]", "values": [{"measurement": "MCM interactions", "setting": "[1]", "value": "does not disrupt MCM interactions"}, {"measurement": "Psf1, Cdc45 and Ctf4 association with Flag-Mcm2", "setting": "[1]", "value": "displaces Psf1, Cdc45, and Ctf4 from Flag-Mcm2"}, {"measurement": "gyrase inhibition", "setting": "[2]", "value": "known to inhibit the bacterial type-2 topoisomerase, gyrase"}, {"measurement": "MCM levels", "setting": "[3]; higher CA1 doses", "value": "MCM levels start to diminish"}, {"measurement": "RPA levels", "setting": "[3]; low micromolar CA1", "value": "reducing RPA levels in a dose-dependent manner"}, {"measurement": "chromatin-bound levels of Cdc45, Psf1 and Psf2", "setting": "[3]; low micromolar CA1", "value": "reducing the chromatin-bound levels of Cdc45, Psf1, and Psf2"}, {"measurement": "HPV18-E1 helicase sensitivity", "setting": "HPV18-E1 helicase", "value": "sensitive to CA1, but require higher CA1 concentrations"}]}
{"smiles": "CO[C@@H]1[C@@H](OC(N)=O)[C@@H](O)[C@H](Oc2ccc3c(O)c(NC(=O)c4ccc(O)c(CC=C(C)C)c4)c(=O)oc3c2C)OC1(C)C", "note": "[novobiocin]", "values": [{"measurement": "effect on tumor cell viability", "setting": "143B cells", "value": "little effect until higher concentrations are tested"}]}
